Results taken from patent publication US20230286973A1, “PROTEIN SECRETION INHIBITORS” (KEZAR LIFE SCIENCES, priority 2020, published 2023).

How the values were obtained:
[1] = test system: PD1-ss+10aa/Gaussia Luciferase; assay: Dox-Induced PD1-ss-Gluc Assay; format: cell-based; settings: 24 hr Dox induction; 293FRT/TO cells; read-out: 24 hr Dox Inducible PD1ssGluc 293FRT/TO: Mean IC50
Method in brief: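 Flp-In 293 T-REx cells stably carrying a doxycycline-inducible Gaussia luciferase fused to the PD1 signal sequence plus 10 aa were plated the day before. Compound dilutions in DMSO/media containing doxycycline were then added and incubated at 37 °C, 5% CO2. Data for undefined stereochemistry refer to stereoisomer mixtures.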

[2] = test system: TNFα-FL/Gaussia Luciferase; assay: Dox Induced TNFα-FL-Gluc Assay; format: cell-based; settings: for IC50: 24 hr Dox induction, 293FRT/TO cells, read-out: 24 hr Dox Inducible TNFaFLGluc 293FRT/TO: Mean IC50; for 24 hr Dox Inducible TNFaFLGluc 293FRT/TO: TNF/PD1: ratio of TNFaFLGluc IC50 to PD1ssGluc IC50
Method in brief: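 Cells are seeded one day ahead, then treated with compound plus doxycycline at 37 °C, 5% CO2. The stable Flp-In 293 T-REx line expresses full-length TNFα (amino acids 1-233) with Gaussia luciferase fused to its 3′ end, inducibly via T-REx.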

[3] = test system: HER3-ss+4aa/Gaussia Luciferase; assay: Dox-Induced Her3-ss-Gluc Assay; format: cell-based; settings: 24 hr Dox induction; 293FRT/TO cells; read-out: 24 hr Dox Inducible Her3(ss + 4)Gluc 293FRT/TO: Mean IC50
Method in brief: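 Expression of a Gaussia luciferase reporter carrying the HER3 signal sequence plus 4 amino acids is induced by doxycycline in stably transfected Flp-In 293 T-REx cells. Compounds are added with doxycycline at 37° C., 5% CO2. Undefined stereocentres denote stereoisomer mixtures.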

[4] = test system: IL-2-FL/Gaussia Luciferase; assay: Dox Induced IL2-FL-Gluc Assay; format: cell-based; settings: for IC50: 24 hr Dox induction, 293FRT/TO cells, read-out: 24 hr Dox Inducible IL2FLGluc 293FRT/TO: Mean IC50; for 24 hr Dox Inducible IL2FLGluc 293FRT/TO: IL2/PD1: ratio of IL2FLGluc IC50 to PD1ssGluc IC50
Method in brief: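 Reporter is Gaussia luciferase fused to the 3′ end of full-length IL-2 (aa 1-153), expressed from a doxycycline-inducible T-REx construct in stably selected Flp-In 293 cells. Compounds were co-added with doxycycline and incubated at 37° C, 5% CO2.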

[5] = test system: multiple myeloma cell line NCI-H929; assay: H929 Cell Viability Assay; format: cell-based, human; settings: Homo sapiens, NCI-H929, 48 h, NCI-H929 cells, Celltiter-Glo
Method in brief: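 Plate the myeloma cells in RPMI 1640 with 10% FBS, add serially diluted compound, incubate for 48 hours at 37° C, then add CellTiter-Glo and read luciferase signal.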

[6] = test system: multiple myeloma cell line U266B1; assay: U266 Cell Viability Assay; format: cell-based, human; settings: Homo sapiens, U-266, 48 h, U266B1 cells, Celltiter-Glo
Method in brief: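 48 h treatment, 37° C./5% CO2, RPMI 1640 + 10% FBS; viability by CellTiter-Glo luminescence.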

[7] = Liver Microsome Stability Assay (rat); settings: rat liver microsomes, with NADPH, 1.0 uM compound
Method: (§1) Stability of a compound was assessed in the presence of liver microsomes from various sources—mouse, rat, monkey and human liver microsomes. 1.0 uM compound, 0.4% DMSO in 0.1 M Potassium Phosphate with 1.0 mg/mL liver microsomes, were incubated at 37° C. with or without 1 mM NADPH. The samples were quenched at 0, and 30 minutes.

[8] = Liver Microsome Stability Assay (mouse); settings: mouse liver microsomes, with NADPH, 1.0 uM compound
Method: as §1

[9] = Liver Microsome Stability Assay (human); settings: human liver microsomes, with NADPH, 1.0 uM compound
Method: as §1

[10] = Liver Microsome Stability Assay (monkey); settings: monkey liver microsomes, with NADPH, 1.0 uM compound
Method: as §1

IC50 [1] [nM]	IC50 [2] [nM]	IC50 [3] [nM]	IC50 [4] [nM]	EC50 [5] [nM]	EC50 [6] [nM]	Liver Microsome Stability (Multiple Species): Rat - % Remaining after 30 min w/NADPH [7] [%]	Liver Microsome Stability (Multiple Species): Mouse - % Remaining after 30 min w/NADPH [8] [%]	Liver Microsome Stability (Multiple Species): Human - % Remaining after 30 min w/NADPH [9] [%]	Liver Microsome Stability (Multiple Species): Monkey - % Remaining after 30 min w/NADPH [10] [%]	SMILES	24 hr Dox Inducible TNFaFLGluc 293FRT/TO: TNF/PD1 [2]	24 hr Dox Inducible IL2FLGluc 293FRT/TO: IL2/PD1 [4]
37.9	495	68.1	59.6	847	> 25000	31.3	25.5	28	4.62	CS(=O)(=O)N1CCC(Oc2ccc(N3CCC[C@@H]3c3csc(NC(=O)c4cccn4Cc4ccnc(F)c4)n3)cc2)CC1 [Compound A128, (R)-1-((2-fluoropyridin-4-yl)methyl)-N-(4-(1-(4-((1-(methylsulfonyl)piperidin-4-yl)oxy)phenyl)pyrrolidin-2-yl)thiazol-2-yl)-1H-pyrrole-2-carboxamide]	13.1	1.6
9.58	303	15.5	21.2	398	> 25000	0.45	6.21	15.7	8.34	COc1cc(N2CCC[C@@H]2c2csc(NC(=O)c3cccn3Cc3ccnc(F)c3)n2)ccc1OC1CCN(C(C)=O)CC1 [Compound A129, (R)-N-(4-(1-(4-((1-acetylpiperidin-4-yl)oxy)-3-methoxyphenyl)pyrrolidin-2-yl)thiazol-2-yl)-1-((2-fluoropyridin-4-yl)methyl)-1H-pyrrole-2-carboxamide]	31.6	2.2
15.8	683	27.8	65.8	731	> 25000	52.7	53	32.5	25.4	NC(=O)N1CC(Oc2ccc(N3CCC[C@@H]3c3csc(NC(=O)c4cccn4Cc4ccnc(F)c4)n3)cc2)C1 [Compound A130, (R)-N-(4-(1-(4-((1-carbamoylazetidin-3-yl)oxy)phenyl)pyrrolidin-2-yl)thiazol-2-yl)-1-((2-fluoropyridin-4-yl)methyl)-1H-pyrrole-2-carboxamide]	43.1	4.2
30.9	508	48.1	64.7	1110	> 25000	42.9	20.4	11.8	6.3	CN(C)C(=O)N1CC(Oc2ccc(N3CCC[C@@H]3c3csc(NC(=O)c4cccn4Cc4ccnc(F)c4)n3)cc2)C1 [Compound A131, (R)-N-(4-(1-(4-((1-(dimethylcarbamoyl)azetidin-3-yl)oxy)phenyl)pyrrolidin-2-yl)thiazol-2-yl)-1-((2-fluoropyridin-4-yl)methyl)-1H-pyrrole-2-carboxamide]	16.4	2.1
